Values joined by “and” are separate entries in the source; they are usually repeats but may differ in a detail not shown here. Identical values can stand only once. Inconclusive results and toxic doses are left out. Rule for the calls: active = survival T/C of 150% or more; inactive = T/C below 125% in these data.
System: P388 leukemia ip, CD2F1 mice, survival T/C
Experiment: NCI In Vivo Anticancer Drug Screen. Data for tumor model P388 Leukemia (intraperitoneal) in CD2F1 (CDF1) mice
Settings: endpoint: median survival time, higher = longer survival
Method in brief: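 Mice carrying the transplanted tumor received test compound or vehicle. Survival was recorded in each group, and the value is the treated-group measurement divided by that of the vehicle-treated control group.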

[1] = dose: 50.0 mg/kg/injection, schedule: Q01DX009 (ip), vehicle: saline with Tween-80
[2] = dose: 100.0 mg/kg/injection, schedule: Q01DX009 (ip), vehicle: saline with Tween-80
[3] = dose: 200.0 mg/kg/injection, schedule: Q01DX009 (ip), vehicle: saline with Tween-80
[4] = dose: 12.5 mg/kg/injection, schedule: Q01DX005 (ip), vehicle: Klucel (hydroxypropylcellulose) (HPC)
[5] = dose: 25.0 mg/kg/injection, schedule: Q01DX005 (ip), vehicle: Klucel (hydroxypropylcellulose) (HPC)
[6] = dose: 50.0 mg/kg/injection, schedule: Q01DX005 (ip), vehicle: saline with Tween-80
[7] = dose: 100.0 mg/kg/injection, schedule: Q01DX005 (ip), vehicle: saline with Tween-80
[8] = dose: 200.0 mg/kg/injection, schedule: Q01DX005 (ip), vehicle: saline with Tween-80
[9] = dose: 50.0 mg/kg/injection, schedule: Q01DX005 (ip), vehicle: Klucel (hydroxypropylcellulose) (HPC)
[10] = dose: 100.0 mg/kg/injection, schedule: Q01DX005 (ip), vehicle: Klucel (hydroxypropylcellulose) (HPC)
[11] = dose: 200.0 mg/kg/injection, schedule: Q01DX005 (ip), vehicle: Klucel (hydroxypropylcellulose) (HPC)
[12] = dose: 60.0 mg/kg/injection, schedule: Q01DX005 (ip), vehicle: Klucel (hydroxypropylcellulose) (HPC)
[13] = dose: 120.0 mg/kg/injection, schedule: Q01DX005 (ip), vehicle: Klucel (hydroxypropylcellulose) (HPC)
[14] = dose: 240.0 mg/kg/injection, schedule: Q01DX005 (ip), vehicle: Klucel (hydroxypropylcellulose) (HPC)

Measured: T/C

COc1cccc2c1C(=O)c1c(O)c3c(c(O)c1C2=O)C[C@@](O)(C(C)=O)C[C@@H]3OC1CC(N)C(OC2CC(O)C(O)C(C)O2)C(C)O1 (some centres not stated)
inactive: dose: 2.25 mg/kg/injection, schedule: Q04DX003 (ip), vehicle: distilled water + Tween-80 113 % of control | dose: 4.5 mg/kg/injection, schedule: Q04DX003 (ip), vehicle: distilled water + Tween-80 113 % of control | dose: 6.25 mg/kg/injection, schedule: Q04DX003 (ip), vehicle: distilled water + Tween-80 112 % of control | dose: 9.0 mg/kg/injection, schedule: Q04DX003 (ip), vehicle: distilled water + Tween-80 123 % of control | dose: 12.5 mg/kg/injection, schedule: Q04DX003 (ip), vehicle: distilled water + Tween-80 112 % of control | dose: 25.0 mg/kg/injection, schedule: Q04DX003 (ip), vehicle: distilled water + Tween-80 119 % of control | dose: 36.0 mg/kg/injection, schedule: Q04DX003 (ip), vehicle: distilled water + Tween-80 123 % of control | dose: 100.0 mg/kg/injection, schedule: Q04DX003 (ip), vehicle: distilled water + Tween-80 118 % of control

O=C(NNC(O)C(F)(F)F)c1ccccc1F (configuration not stated)
inactive: dose: 100.0 mg/kg/injection, schedule: Q04DX002 (ip), vehicle: Klucel (hydroxypropylcellulose) (HPC) 99 % of control

CC(=O)OC1OC(C(OC(C)=O)C(Cl)Cl)OC1C(Cl)Cl (configuration not stated)
inactive: [1] 97 % of control | [2] 105 % of control | [3] 112 % of control

CCCCCCCN(CCCCCCC)C(=N)c1ccc(OC)c2ccccc12
inactive: dose: 6.25 mg/kg/injection, schedule: Q01DX005 (ip), vehicle: Klucel (hydroxypropylcellulose) (HPC) 101 % of control | [4] 101 % of control | [5] 89 % of control

CCN(Cc1cccc(S(=O)(=O)O)c1)c1ccc(C(=C2C=CC(=[N+](CC)Cc3cccc(S(=O)(=O)O)c3)C=C2)c2ccccc2Cl)cc1
inactive: [6] 103 % of control | [7] 99 % of control | [8] 110 % of control

COc1ccc2c(c1)CSC(c1ccccc1)=C2
inactive: [1] 100 % of control | [2] 93 % of control | [3] 94 % of control | dose: 400.0 mg/kg/injection, schedule: Q01DX009 (ip), vehicle: saline with Tween-80 92 % of control

CCN(CC)C(Cc1ccccc1)=NC(C)(C)C
inactive: [1] 94 % of control | [2] 88 % of control

CC1SC(=O)NN=C1c1ccccc1 (configuration not stated)
inactive: [1] 94 % of control | [2] 97 % of control | [3] 106 % of control

CCOC(=O)c1c(C(=O)OC)nc2n1-c1ccccc1OC2
inactive: dose: 30.0 mg/kg/injection, schedule: Q01DX005 (ip), vehicle: saline with Tween-80 97 % of control | dose: 60.0 mg/kg/injection, schedule: Q01DX005 (ip), vehicle: saline with Tween-80 92 % of control and 94 % of control | dose: 120.0 mg/kg/injection, schedule: Q01DX005 (ip), vehicle: saline with Tween-80 93 % of control | dose: 240.0 mg/kg/injection, schedule: Q01DX005 (ip), vehicle: saline with Tween-80 93 % of control

O=c1oc(-c2ccccc2)nc2c1CCCS2
inactive: [9] 100 % of control | [10] 99 % of control and 103 % of control | [11] 103 % of control and 89 % of control

COc1ccc(/C=C/C(CCN(C)C)=N/NC(=S)Nc2ccc(Br)cc2)cc1
inactive: dose: 100.0 mg/kg/injection, schedule: Q01DX001 (ip), vehicle: saline with Tween-80 101 % of control | dose: 200.0 mg/kg/injection, schedule: Q01DX001 (ip), vehicle: saline with Tween-80 96 % of control | dose: 400.0 mg/kg/injection, schedule: Q01DX001 (ip), vehicle: saline with Tween-80 105 % of control

CC1=C(CCC(C)CO)OC2CC3C4CCC5CC(O)CCC5(C)C4CCC3(C)C12 (configuration not stated)
inactive: dose: 25.0 mg/kg/injection, schedule: Q01DX009 (ip), vehicle: suspension in saline 90 % of control and 95 % of control | dose: 50.0 mg/kg/injection, schedule: Q01DX009 (ip), vehicle: suspension in saline 96 % of control | dose: 100.0 mg/kg/injection, schedule: Q01DX009 (ip), vehicle: suspension in saline 88 % of control and 94 % of control | dose: 200.0 mg/kg/injection, schedule: Q01DX009 (ip), vehicle: suspension in saline 87 % of control and 89 % of control

O=NNc1cncc(Sc2ccccc2)n1
inactive: dose: 3.12 mg/kg/injection, schedule: Q01DX009 (ip), vehicle: water 97 % of control | dose: 6.25 mg/kg/injection, schedule: Q01DX009 (ip), vehicle: water 94 % of control | dose: 12.5 mg/kg/injection, schedule: Q01DX009 (ip), vehicle: water 101 % of control | dose: 25.0 mg/kg/injection, schedule: Q01DX008 (ip), vehicle: water 116 % of control | dose: 25.0 mg/kg/injection, schedule: Q01DX009 (ip), vehicle: water 107 % of control | dose: 50.0 mg/kg/injection, schedule: Q01DX008 (ip), vehicle: water 120 % of control | dose: 50.0 mg/kg/injection, schedule: Q01DX009 (ip), vehicle: water 92 % of control

COc1ccc(S(=O)(=O)N/N=C/c2cnc[nH]2)cc1
inactive: [4] 100 % of control | [5] 97 % of control | [9] 97 % of control | [10] 88 % of control | [11] 90 % of control and 94 % of control | dose: 400.0 mg/kg/injection, schedule: Q01DX005 (ip), vehicle: Klucel (hydroxypropylcellulose) (HPC) 117 % of control

ClCCN(CCCl)c1ccc(/C=N/Nc2ccnc3cc(Cl)ccc23)cc1
inactive: [1] 95 % of control | [2] 101 % of control | [3] 93 % of control

O=c1[nH]c2ccc(Br)cc2c(=O)o1
inactive: dose: 12.5 mg/kg/injection, schedule: Q01DX009 (ip), vehicle: saline with Tween-80 104 % of control | dose: 25.0 mg/kg/injection, schedule: Q01DX009 (ip), vehicle: saline with Tween-80 102 % of control | [1] 110 % of control | dose: 100.0 mg/kg/injection, schedule: Q01DX001 (ip), vehicle: other 100 % of control | [2] 114 % of control | dose: 200.0 mg/kg/injection, schedule: Q01DX001 (ip), vehicle: other 100 % of control | dose: 400.0 mg/kg/injection, schedule: Q01DX001 (ip), vehicle: other 95 % of control

Cc1ccc2c(=O)c3ccccc3c3c2c1c1c(C)ccc2c(=O)c4ccccc4c3c21
inactive: [9] 108 % of control | [10] 102 % of control | [11] 107 % of control

S=c1nc(-c2ccccc2)oc(=NC2CCCCC2)n1C1CCCCC1
inactive: [6] 98 % of control | [7] 101 % of control | [8] 109 % of control

CCC(=O)N1C(=O)C(C)C23c4cccc([N+](=O)[O-])c4C(=O)N2CCCN13 (configuration not stated)
inactive: [12] 100 % of control | [13] 97 % of control | [14] 93 % of control

O=C1CNC(=O)c2cc(Cl)ccc2N1
inactive: dose: 50.0 mg/kg/injection, schedule: Q01DX009 (ip), vehicle: Klucel (hydroxypropylcellulose) (HPC) 103 % of control | dose: 100.0 mg/kg/injection, schedule: Q01DX009 (ip), vehicle: Klucel (hydroxypropylcellulose) (HPC) 97 % of control | dose: 200.0 mg/kg/injection, schedule: Q01DX009 (ip), vehicle: Klucel (hydroxypropylcellulose) (HPC) 100 % of control

O=C1C2=C(Nc3cc(Cl)ccc3N2)OC1c1ccccc1Cl (configuration not stated)
inactive: [12] 95 % of control | [13] 94 % of control | [14] 104 % of control

C=CCOc1cccc(OCC=C)c1C
inactive: dose: 100.0 mg/kg/injection, schedule: Q04DX003 (ip), vehicle: saline with Tween-80 113 % of control | dose: 200.0 mg/kg/injection, schedule: Q04DX003 (ip), vehicle: saline with Tween-80 100 % of control | dose: 400.0 mg/kg/injection, schedule: Q04DX003 (ip), vehicle: saline with Tween-80 104 % of control
